Entries after “also recorded” stand apart in the source; their conditions may differ.
How the values were obtained:
[1] = test system: Staphylococcus aureus ATCC 6538; assay: Antibiotic disc assay (zones of inhibition), S. aureus; assay type: cell-based
Procedure: (§1) Erwinia sp. #351 was from Presque Isle Cultures, Presque Isle, Pa. Lactobacillus fermentum ATCC 14931, zygosaccharomyces bailii ATCC 60483 and E. coli ATCC 25922 (National Committee on Clinical Laboratory Standards antibiotic test strain) were from the American Type Culture Collection, Manassas, Va. Staphylococcus aureus ATCC 6538 and Enterococcus faecalis Bact. 4025 were obtained from the UW-Madison Department of Bacteriology culture collection. All bacteria except for L. fermentum were grown statically in screwcap tubes containing 10 ml Trypticase Soy Broth (BBL, Cockeysville, Md.) for 20-22 hours at 30° C. L. fermentum was grown statically in screwcap tubes containing 10 ml MRS broth (Difco) for 20-22 hours at 30° C. Cultures of Z. bailii were grown in 125 ml culture flasks containing 50 ml YM broth (Difco) on a rotary shaker set at 200 rpm for 20-22 hours at 25° C.
(§2) The activity of terpenoid compounds toward facilitating susceptibility to antibiotics was assessed using an antibiotic disc assay. For this assay, cells from an overnight growth were suspended to a known concentration in 0.5 ml 67 mM phosphate buffer, pH 7.0 and mixed with 4.5 ml 0.7% Iso-Sensitest agar (Oxoid, Basingstoke, Hampshire, England) overlay tempered to 50° C. Terpenoid compounds dissolved in absolute ethanol were added to the cell/agar overlay mixture yielding final concentrations of 0.5, 1.0 or 2.0 mM, depending on the experiment. The final concentration of ethanol in cell overlays was 0.5% and the final concentration of target cells was ca. 10^6 cfu/ml. After thorough vortexing, terpenoid-containing cell overlays were poured over hardened Iso-Sensitest agar (2% agar) plates and allowed to set. […] After incubation, zones of inhibition were measured with a ruler from the bottom of the plates.

[2] = test system: zygosaccharomyces bailii ATCC 60483; assay: Flow cytometry, uptake of ethidium bromide by Z. bailii; assay type: cell-based; conditions: 0.5 mM sesquiterpenoid, 15 μM ethidium bromide, 40 minutes
Procedure: (§3) Erwinia sp. #351 was from Presque Isle Cultures, Presque Isle, Pa. Lactobacillus fermentum ATCC 14931, zygosaccharomyces bailii ATCC 60483 and E. coli ATCC 25922 (National Committee on Clinical Laboratory Standards antibiotic test strain) were from the American Type Culture Collection, Manassas, Va. Staphylococcus aureus ATCC 6538 and Enterococcus faecalis Bact. 4025 were obtained from the UW-Madison Department of Bacteriology culture collection. All bacteria except for L. fermentum were grown statically in screwcap tubes containing 10 ml Trypticase Soy Broth (BBL, Cockeysville, Md.) for 20-22 hours at 30° C. L. fermentum was grown statically in screwcap tubes containing 10 ml MRS broth (Difco) for 20-22 hours at 30° C. Cultures of Z. bailii were grown in 125 ml culture flasks containing 50 ml YM broth (Difco) on a rotary shaker set at 200 rpm for 20-22 hours at 25° C. For experiments involving flow cytometry, overnight cultures of Erwinia sp., L. fermentum and Z. bailli were set to a concentration of ca. 10^7 cfu/ml in 67 mM phosphate buffer, pH 7.0 (filtered, 0.2 μm). For the examination of sesquiterpenoids, cell suspensions containing either 0.5% ethanol and 15 μM ethidium bromide or 0.5 mM apritone, bisabolol, nerolidol or farnesol dissolved in ethanol (0.5% ethanol, final concentration) and 15 μM ethidium bromide were incubated for 40 minutes at room temperature. After incubation, cell suspensions were diluted 1:10 in 67 mM phosphate buffer, pH 7.0 (filtered, 0.2 μm) and examined using a FACScan flow cytometer (Becton Dickinson and Company, Cockeysville, Md.). Data were collected in logarithmic mode on forward scatter, side scatter and fluorescence characteristics of the cells.

[3] = test system: E. coli ATCC 25922; assay: Plating assay, nerolidol enhancing polymyxin B activity against E. coli; assay type: cell-based, Escherichia coli; conditions: 1 mM nerolidol plus 10 ppm polymyxin B, up to 30 minutes at 37° C.
Procedure: as §1, with “25° C. […]” for “25° C.”
Cell suspensions (1.7×10^7 cfu/ml in 67 mM phosphate buffer, pH 7.0) were treated as shown and incubated for up to 30 minutes at 37° C. Cell viability was determined at appropriate intervals by pour plating with Trypticase Soy agar tempered to 50° C.

[4] = test system: Lactobacillus fermentum ATCC 14931; assay: Flow cytometry, uptake of ethidium bromide by L. fermentum; assay type: cell-based; conditions: 15 μM ethidium bromide
Procedure: as §3

[5] = test system: Enterococcus faecalis Bact. 4025; assay type: cell-based; conditions: E. faecalis
Procedure: as §1, §2

C=CC(C)(O)CCC=C(C)CCC=C(C)C (stereo not shown) [nerolidol]
ability to sensitize S. aureus to ciprofloxacin ([1]; 0.5 mM terpenoid, ciprofloxacin 5 μg disc): most effective | sensitization to six different antibiotics ([1]; disc diffusion, 0.5-2 mM sesquiterpenoid): readily sensitized | zone size, ciprofloxacin 5 μg disc ([1]; terpenoid at 0.5 mM in agar overlay, ciprofloxacin 5 μg disc): 27.5 mm | uptake of ethidium bromide (fluorescence, chromosomal staining) [2]: became more fluorescent | susceptibility of E. coli to polymyxin B (cell viability, cfu/ml) [3]: dramatic increase in the susceptibility; also recorded: synergistic effect | time to substantial uptake of ethidium bromide ([4]; 0.5 mM nerolidol): ≤ 5 min | uptake of ethidium bromide (ethidium-conferred fluorescence) ([4]; 0.5 mM sesquiterpenoid, 40 minutes): facilitated the uptake of ethidium bromide | zones smaller than control plates by ([5]; clindamycin 2 μg disc, 1 mM sesquiterpenoid): 1 mm | degree of sensitization to antibiotics ([5]; disc diffusion, 1 mM sesquiterpenoid): only a modest degree of sensitization | enhancement of inhibition zone size ([5]; nerolidol 1 mM combined with gentamicin 10 μg disc): almost two-fold enhancement

— patent US20020165130A1, “Method of sensitizing microbial cells to antimicrobial compounds” (priority 1998, published 2002)
